Experimental data taken from Sander's compilation of Henry's law constants (doi:10.1213/00000539-199904000-00035).

Assay: Henry solubility constant Hcp at 310 K (mol/(m3 Pa))
Settings: reference: Eger et al. (1999)

Row | SMILES | Henry solubility constant Hcp at 310 K
1 | OCC(F)(F)F [2,2,2-trifluoroethanol] | 0.43
2 | OCC(F)(F)C(F)(F)C(F)(F)C(F)(F)C(F)(F)F [2,2,3,3,4,4,5,5,6,6,6-undecafluoro-1-hexanol] | 0.0017
3 | OC(C(F)(F)F)C(F)(F)F [1,1,1,3,3,3-hexafluoro-2-propanol] | 0.1
4 | CCCCCCCCO [1-octanol] | 0.27
5 | CCCCCCO [1-hexanol] | 0.35
6 | OCCC(F)(F)C(F)(F)C(F)(F)C(F)(F)C(F)(F)C(F)(F)F [1H,1H,2H,2H-perfluoro-1-octanol] | 0.00094
7 | OCC(F)(F)C(F)(F)C(F)(F)C(F)F [2,2,3,3,4,4,5,5-octafluoro-1-pentanol] | 0.25
8 | OCC(F)(F)C(F)(F)C(F)(F)C(F)(F)C(F)(F)C(F)(F)C(F)(F)F [2,2,3,3,4,4,5,5,6,6,7,7,8,8,8-pentadecafluoro-1-octanol] | 0.00023
9 | OCC(F)(F)C(F)(F)C(F)(F)C(F)(F)C(F)(F)C(F)F [2,2,3,3,4,4,5,5,6,6,7,7-dodecafluoro-1-heptanol] | 0.064
10 | CC(O)C(F)(F)F (configuration not stated) [1,1,1-trifluoro-2-propanol] | 0.13
11 | CC(O)C(F)(F)C(F)(F)C(F)(F)F (configuration not stated) [3,3,4,4,5,5,5-heptafluoro-2-pentanol] | 0.009
12 | OCC(F)(F)C(F)C(F)(F)F (configuration not stated) [2,2,3,4,4,4-hexafluoro-1-butanol] | 0.32
13 | OCC(F)(F)C(F)(F)C(F)(F)C(F)(F)C(F)(F)C(F)(F)F [2,2,3,3,4,4,5,5,6,6,7,7,7-tridecafluoro-1-heptanol] | 0.0006
14 | OCC(F)(F)C(F)F [2,2,3,3-tetrafluoro-1-propanol] | 0.75
15 | OCC(F)(F)C(F)(F)F [2,2,3,3,3-pentafluoro-1-propanol] | 0.069
16 | CCO [ethanol] | 1
17 | CC(O)(C(F)(F)F)C(F)(F)F [1,1,1,3,3,3-hexafluoro-2-methyl-2-propanol] | 0.018
